Assay results published in US8883798B2, “Pyrimidine compounds inhibiting the formation of nitric oxide and prostaglandin E2, method of production thereof and use thereof” (Ustav Organicke Chemie a Biochemie Akademie Ved CR, V.V.I., priority 2011, dated 2014).

Tests used:
[1] = tested on: production of nitric oxide (NO); assay: Production of nitric oxide (NO) in cultures of mouse peritoneal cells stimulated with IFN-γ plus LPS (Griess reagent); assay type: cell-based, mice; details: substance 50 μmol·l^−1, IFN-g plus LPS, 24 h
Procedure: (§1) Under in vitro conditions, the effect of the pyrimidine compounds according to this invention was tested in terms of the production of nitric oxide (NO) and in terms of the production of prostaglandin E2 (PGE2) in cultures of the peritoneal cells of mice.
NO is a product of the metabolism of L-arginine, quickly changes to […], which are then measured using the Griess reagent system. Under normal conditions, the production of NO is practically zero. It only occurs after some stimulation. In these experiments, interferon-gamma (IFN-γ) and bacterial lipopolysacharide (LPS) were used as stimulators. The values of NO induced in this way fluctuated in the individual experiments in a range from 52 to 89 μmol·l^−1; for the purposes of comparison between the experiments they were considered as 100%. The production of NO after the application of the substances was expressed in percentage with respect to the control values. (The lower the value, the higher the inhibition effect of the substances on NO production.) IC50 are the concentrations of the substances reducing the production of NO by 50% with respect to the controls.
(§2) Experiments were performed on mice peritoneal cells C57BL/6 (Charles River, Germany—AnLabu).
(§3) NO production was induced using IFN-g (5000 pg/mL) plus LPS (100 pg/mL); evaluated (Griess reagent) after 24 h of the cell cultivation (2×10^6/mL). PGE2 was induced using LPS (10 ng/mL); evaluated (ELISA) following 6 h cultivation of cells (3×10^6/mL). Cell longevity was evaluated using WST-1 (tetrazolium salt), following 24 h cultivation of cells (1×10^6/mL). The values mentioned in the table represent the effects of the substances tested in a concentration of 50 μmol·l^−1.

[2] = tested on: production of prostaglandin E2 (PGE2); assay: Production of prostaglandin E2 (PGE2) in cultures of mouse peritoneal cells stimulated with LPS (ELISA kit); assay type: cell-based, mice; details: for Production of prostaglandins in % of the controls: Table 3A, substance 50 μmol·l^−1, 6 h
Procedure: as §1
The influence on the production of prostaglandin E2 (PGE2) in vitro caused by the activity of the pyrimidine compounds according to the submitted invention was determined in cultures of the peritoneal cells of mice using a commercial kit (R&DSystems). The concentrations of PGE2 after lipopolysacharide (LPS) stimulation reached in the individual experiments values in a range of 22 to 91 ng·ml^−1 and for the purposes of comparison between the experiments were considered as 100%. The influence of the substances on the production of PGE2 was evaluated in percentage with respect to the control values.
as §2, §3

peritoneal cells of mice = assay: Cell viability of mouse peritoneal cells (WST-1 kit); assay type: cell-based; details: substance 50 μmol·l^−1, 24 h; for Cell viability in % of the controls: Table 3A; for Cell viabilities in % of the controls: Table 3B
Procedure: Cell viability was determined in the standard way using a WST-1 kit (Roche). The values of the viability of the control cells were for the purposes of comparison between experiments considered as 100%. The influence of the substances on the longevity of the cells was evaluated in percentage with respect to the control values.
as §2, §3

Production of prostaglandins IC50 (μmol · 1^−1) average value and range of values ([2]; Table 3B, 6 h)	SMILES	Production of nitric oxide in % of the controls ([1]; Table 3A)	Production of prostaglandins in % of the controls [2]	Cell viability in % of the controls (peritoneal cells of mice)	Production of nitric oxide in % of the controls ([1]; Table 3B)	Cell viabilities in % of the controls (peritoneal cells of mice)
–	Cc1c(Cl)nc(N=CN(C)C)nc1Cl [Substance 13]	21.39 ± 4.78 % of the controls	59.98 ± 1.82 % of the controls	77.29 ± 3.69 % of the controls	–	–
–	CCc1c(Cl)nc(N=CN(C)C)nc1Cl [Substance 14]	23.24 ± 6.78 % of the controls	30.40 ± 0.80 % of the controls	162.93 ± 14.68 % of the controls	–	–
–	CCCc1c(Cl)nc(N=CN(C)C)nc1Cl [Substance 15]	8.42 ± 4.75 % of the controls	14.76 ± 0.52 % of the controls	109.35 ± 8.88 % of the controls	–	–
–	CC(C)c1c(Cl)nc(N=CN(C)C)nc1Cl [Substance 16]	7.32 ± 2.68 % of the controls	32.10 ± 2.31 % of the controls	134.83 ± 16.51 % of the controls	–	–
–	C=CCc1c(Cl)nc(N=CN(C)C)nc1Cl [Substance 17]	6.2 ± 0.91 % of the controls	15.72 ± 0.46 % of the controls	136.13 ± 11.32 % of the controls	–	–
–	C#CCc1c(Cl)nc(N=CN(C)C)nc1Cl [Substance 18]	0.90 ± 0.22 % of the controls	78.55 ± 0.38 % of the controls	67.89 ± 7.41 % of the controls	–	–
–	CCC(C)c1c(Cl)nc(N=CN(C)C)nc1Cl (stereo not drawn) [Substance 21]	0.69 ± 0.12 % of the controls	8.14 ± 0.07 % of the controls	122.65 ± 14.39 % of the controls	–	–
–	CCCCCCc1c(Cl)nc(N=CN(C)C)nc1Cl [Substance 22]	61.34 ± 3.91 % of the controls	–	–	–	–
–	CN(C)C=Nc1nc(Cl)c(-c2ccccc2)c(Cl)n1 [Substance 24]	4.97 ± 2.00 % of the controls	18.45 ± 13.68 % of the controls	80.00 ± 11.61 % of the controls	–	–
–	Cc1c(Cl)nc(N)nc1Cl [Substance 25]	47.30 ± 13.48 % of the controls	–	98.55 ± 17.60 % of the controls	–	–
–	CCc1c(Cl)nc(N)nc1Cl [Substance 26]	48.59 ± 9.49 % of the controls	–	91.53 ± 10.78 % of the controls	–	–
–	CCCc1c(Cl)nc(N)nc1Cl [Substance 27]	46.98 ± 10.25 % of the controls	31.73 ± 4.35 % of the controls	87.86 ± 9.18 % of the controls	–	–
–	CC(C)c1c(Cl)nc(N)nc1Cl [Substance 29]	36.97 ± 8.22 % of the controls	–	91.18 ± 9.90 % of the controls	–	–
–	CCC(C)c1c(Cl)nc(N)nc1Cl (stereo not drawn) [Substance 30]	47.48 ± 6.22 % of the controls	–	111.90 ± 9.63 % of the controls	–	–
–	Nc1nc(Cl)c(-c2ccccc2)c(Cl)n1 [Substance 31]	36.11 ± 8.38 % of the controls	–	82.53 ± 8.73 % of the controls	–	–
–	C#CCc1c(Cl)nc(N)nc1Cl [Substance 33]	35.98 ± 14.08 % of the controls	–	90.58 ± 17.05 % of the controls	–	–
–	CCC(C)c1c(I)nc(N)nc1I (stereo not drawn) [Substance 36]	2.80 ± 1.28 % of the controls	–	–	–	–
–	CCC(C)c1c(Cl)nc(N)nc1I (stereo not drawn) [Substance 37]	6.67 ± 5.15 % of the controls	–	49.11 ± 3.29 % of the controls	–	–
–	Nc1nc(I)c(Cc2ccccc2)c(I)n1 [Substance 38]	34.80 ± 0.31 % of the controls	–	78.60 ± 5.33 % of the controls	–	–
–	Nc1nc(Cl)c(Cc2ccccc2)c(I)n1 [Substance 39]	18.30 ± 7.66 % of the controls	–	67.81 ± 3.08 % of the controls	–	–

Production of prostaglandins IC50 (μmol · 1^−1) average value and range of values ([2]; Table 3B, 6 h)	SMILES	Production of nitric oxide in % of the controls ([1]; Table 3A)	Production of prostaglandins in % of the controls [2]	Cell viability in % of the controls (peritoneal cells of mice)	Production of nitric oxide in % of the controls ([1]; Table 3B)	Cell viabilities in % of the controls (peritoneal cells of mice)
–	Nc1nc(Br)c(Cc2ccccc2)c(Br)n1 [Substance 40]	32.45 ± 10.99 % of the controls	–	90.18 ± 3.75 % of the controls	–	–
–	CCCCc1c(Cl)nc(N)nc1-c1ccccc1 [Substance 41]	47.82 ± 6.08 % of the controls	–	108.24 ± 7.40 % of the controls	–	–
–	CCCCc1c(Cl)nc(N)nc1-c1ccsc1 [Substance 42]	63.18 ± 0.89 % of the controls	–	157.36 ± 5.16 % of the controls	–	–
–	CCCCc1c(Cl)nc(N)nc1-c1cccnc1 [Substance 43]	58.68 ± 0.92 % of the controls	–	166.77 ± 22.51 % of the controls	–	–
–	CCCCc1c(Cl)nc(N)nc1-c1cc2ccccc2o1 [Substance 44]	62.62 ± 0.19 % of the controls	–	147.78 ± 5.90 % of the controls	–	–
–	CCCCc1c(-c2ccccc2)nc(N)nc1-c1ccccc1 [Substance 45]	73.29 ± 1.40 % of the controls	–	297.33 ± 23.17 % of the controls	–	–
–	CCCCc1c(-c2cccnc2)nc(N)nc1-c1cccnc1 [Substance 46]	70.00 ± 4.82 % of the controls	–	107.08 ± 2.94 % of the controls	–	–
–	CCCCc1c(-c2cc3ccccc3o2)nc(N)nc1-c1cc2ccccc2o1 [Substance 47]	41.23 ± 18.49 % of the controls	–	75.01 ± 13.63 % of the controls	–	–
–	CCCCCCc1c(Cl)nc(NC=O)nc1Cl [Substance 55]	14.77 ± 9.19 % of the controls	–	144.97 ± 18.27 % of the controls	–	–
–	C#CCc1c(Cl)nc(NC=O)nc1Cl [Substance 58]	0.69 ± 0.26 % of the controls	12.30 ± 0.54 % of the controls	–	–	–
–	C=C(Cl)Cc1c(Cl)nc(NC=O)nc1Cl [Substance 60]	0.13 ± 0.13 % of the controls	–	37.13 ± 1.27 % of the controls	–	–
–	CCCCc1c(Cl)ncnc1Cl [Substance 61]	27.38 ± 1.88 % of the controls	–	73.73 ± 0.99 % of the controls	–	–
–	CCCCc1c(Cl)nc(C)nc1Cl [Substance 62]	41.21 ± 5.50 % of the controls	–	80.93 ± 0.84 % of the controls	–	–
–	CCCCc1c(Cl)nc(N(C)C)nc1Cl [Substance 63]	64.97 ± 2.92 % of the controls	–	–	–	–
–	CCCCc1c(-c2cccnc2)nc(N)nc1-c1cccnc1 [Substance 81]	–	–	–	50.07 ± 3.04; n = 6 % of the controls	82.21 ± 7.34; n = 8 % of the controls
–	CCCCc1c(-c2ccncc2)nc(N)nc1-c1ccc(OC)cc1 [Substance 83]	–	–	–	63.81 ± 5.32; n = 6 % of the controls	95.41 ± 4.70; n = 8 % of the controls
–	CCCCc1c(-c2ccncc2)nc(N)nc1-c1cccnc1 [Substance 84]	–	–	–	47.55 ± 7.12; n = 6 % of the controls	109.54 ± 4.48; n = 8 % of the controls
–	CCCCc1c(Cl)nc(N)nc1-c1ccncc1 [Substance 85]	–	–	–	49.34 ± 4.20; n = 4 % of the controls	87.62 ± 6.58; n = 4 % of the controls
11.47 ± 2.73; n = 4 μmol · 1^−1	CCCCc1c(Cl)nc(N)nc1-c1cccs1 [Substance 93]	–	–	–	–	74.47 ± 0.81; n = 4 % of the controls
